Data from US11865110B2, “Thrombin inhibitors, formulations, and uses thereof” (VERSEON INTERNATIONAL CORPORATION, priority 2018, dated 2024).

Experiments:
[1] = Mouse plasma stability; type: in vitro ADME, mouse (CD-1); details: CD-1 mouse plasma, 37° C., time points to 160 min; read-out: Mouse Plasma Stability t1/2
Protocol: (§1) Alongside a positive control of propantheline bromide, 8 μL of a 1 mM solution of each test compound in DMSO was placed in two wells of a Nunc™ 96-well plate called the “dilution plate.” To one well, 392 μL of HyClone™ water was added and mixed by a pipette. To the other well, 392 μL of mouse or rat plasma stabilized with sodium citrate purchased from Innovative Research was added and mixed by a pipette. The dilution plate was kept covered to reduce solvent evaporation and heated in an incubator at 37° C. At each of the time points enumerated below, the plate was removed from the incubator and 50 μL of the test compound/water or test compound/plasma solutions were transferred to a unique, corresponding well in a “quench plate” (96-well Costar® plate) that contains 150 μL of a quench solution that contains an internal standard (20 uM diclofenac in acetonitrile). The dilution plate was then returned to the incubator. This process was performed at 0, 5, 10, 20, 40, 80, and 160 minutes from the original mixing of the test compounds with the water or plasma in the dilution plate. After the quenching of the 160-minute time point, the quench plate was then centrifuged at 4° C. at 1000×g for 10 minutes. 100 μL of the supernatant of each well were then transferred to corresponding unique wells in a “read plate” (96-well Costar® plate) that were filled with 100 μL of HyClone™ water. The plate was then sealed and analyzed via UHPLC using a 10-μL sample injection through a Phenomenex® Kinetex column pre-equilibrated with the loading buffer (95:5 water:acetonitrile). The parameters were as follows. Mobile Phase A: water, 0.025% formic acid. Mobile Phase B: acetonitrile, 0.025% formic acid. Flow Rate: 0.5 mL/min. […] Half-life (t1/2) times were computed by using a chi-square analysis to fit the peak areas to an exponential decay model for compound concentration as a function of time.

[2] = Rat plasma stability; type: in vitro ADME; details: Sprague-Dawley; SD rat plasma, 37° C., time points to 160 min; read-out: Rat Plasma Stability t1/2
Protocol: as §1

[3] = Rat pharmacokinetics; type: in vivo; details: Sprague-Dawley, plasma, SD rats; for C0: C0 by extrapolation
Protocol: Rat pharmacokinetic data were generated as follows. Compounds were administered intravenously (IV) via tail vein or orally (PO) via gastric gavage to Sprague-Dawley rats fitted with surgically implanted jugular vein catheters (JVC) with nominal weights between 250 and 275 g. Nominal doses were 1 mg/kg and 5 mg/kg for IV and PO, respectively. The doses for IV administration were formulated by dissolving the test compound in a mixture (v/v/v) of 5% N,N-dimethylacetamide (DMA), 15% Kolliphor® (Solutol®) HS15, and 80% sterile water at a dose concentration of 0.25 mg/mL. The doses for PO administration were formulated either as Option A or Option B. Option A was formulated by dissolving the test compound in a mixture (v/v) of 90% Kolliphor® (Solutol®) HS15 and 10% pure ethanol at a dose concentration of 0.25 mg/mL. Option B was formulated by dissolving the test compound in a mixture (v/v) of 20% Labrasol® and 80% Phosphate buffer at pH 6.8.
Animals were housed in standard holding cages with food and water available ad libitum except for animals used for PO dosing which were fasted overnight prior to dosing. One to three rats were used for each experiment. Samples were collected manually via its JVC just before the dosing, as well as at the time points of 5 min, 15 min, 30 min, 60 min, 120 min, 4 h, 8 h, 12 h, and 24 h. Alternatively, samples were collected automatically by transferring the animal to a BASi Culex® automated blood-sampling system for the duration of the experiment. Plasma was obtained by centrifuge and stored frozen until analyzed by LC-MS/MS using an AB Sciex™ QTrap® 5500 coupled to a Shimadzu Nexera X2 fitted with a Luna® Omega 1.6 μm Polar C18 100 Å, 50×2.1 mm, acquired from Phenomenex®. Samples were compared against a standard curve of the test compound at concentrations ranging from 10,000 to 0.3 ng/mL.
(§2) Pharmacokinetic parameters were calculated from mean concentration values using a non-compartmental analysis as described below and as apparent to those of ordinary skill in the art. Concentration at time zero (C0) for the IV was established by the extrapolation of log linear regression using equal weighting on the first three sample time points. Area under the curve (AUC) values were calculated using linear trapezoidal integration.

[4] = Mouse pharmacokinetics; type: in vivo; details: plasma, male CD-1 mice; for C0: C0 by extrapolation
Protocol: Mouse pharmacokinetic data were generated as follows. Compounds were administered intravenously (IV) as a single dose via tail vein or orally (PO) as a single dose via gastric gavage to male CD-1 mice with weights between 18 and 25 g. Nominal doses were 1 mg/kg and 5 mg/kg for IV and PO administration, respectively. The doses for IV were formulated by dissolving the test compound in a mixture (v/v/v) of 5% N,N-dimethylacetamide (DMA), 15% Kolliphor® (Solutol®) HS15, and 80% sterile water at a dose concentration of 0.25 mg/mL. Doses for PO were formulated by dissolving the test compound in a mixture (v/v) of 90% Kolliphor® (Solutol®) HS15 and 10% pure ethanol at a dose concentration of 0.25 mg/mL.
Animals were housed in standard holding cages with food and water available ad libitum except for those used for PO dosing, which were fasted overnight prior to dosing. Prior to dosing and at each time point following dosing (5 min (IV only), 15 min, 30 min, 60 min, 120 min, 4 h, 8 h, 12 h, and 24 h), two animals were sacrificed and blood samples were taken in triplicate via cardiac puncture. Plasma was obtained by centrifuge and stored frozen until analyzed by LC-MS/MS using an AB Sciex™ QTrap® 5500 coupled to a Shimadzu Nexera X2 fitted with a Luna® Omega 1.6 μm Polar C18 100 Å, 50×2.1 mm, acquired from Phenomenex®. Samples were compared against a standard curve of the test compound at concentrations ranging from 10,000 to 0.3 ng/mL.
as §2, with “parameters are” for “parameters were”, “of log-linear” for “of log linear”

[5] = PO 5 mg/kg, Formulation B (20% Labrasol, 80% phosphate buffer pH 6.8)
[6] = PO 5 mg/kg, Formulation B (20% Labrasol, 80% phosphate buffer pH 6.8), read-out: PO AUC
[7] = IV single dose 1 mg/kg, read-out: IV AUC
[8] = PO single dose 5 mg/kg, read-out: PO AUC
[9] = PO 5 mg/kg, Formulation A (90% Kolliphor HS15, 10% ethanol)
[10] = PO 5 mg/kg, Formulation A (90% Kolliphor HS15, 10% ethanol), read-out: PO AUC

Q: For `CC(C)(C)C(=O)n1nc(-c2cccn(CCCC(=O)O)c2=O)cc1NCc1ccc(Cl)s1` [Compound 5, 4-[3-(5-{[(5-chlorothiophen-2-yl)methyl]amino}-1-(2,2-dimethylpropanoyl)-1H-pyrazol-3-yl)-2-oxo-1,2-dihydropyridin-1-yl]butanoic acid], which half-life at 20 µM [1] is on record?
A: 3.83 h

Q: And the half-life at 20 µM [2]?
A: 1.13 h

Q: What about the C0 ([3]; IV 1 mg/kg) of the same compound?
A: 5400 ng/mL

Q: And the AUC ([3]; IV 1 mg/kg, read-out: IV AUC)?
A: 3300 ng·h/mL

Q: And the Cmax [3, 5]?
A: 930 ng/mL

Q: What about the AUC [3, 6] of the same compound?
A: 2100 ng·h/mL

Q: Which half-life at 20 µM [1] does the source give for `CC(C)(N)Cn1cccc(-c2cc(NCc3ccc(Cl)s3)n(C(=O)c3ccoc3)n2)c1=O` [Compound 9, 1-(2-amino-2-methylpropyl)-3-(5-{[(5-chlorothiophen-2-yl)methyl]amino}-1-(furan-3-carbonyl)-1H-pyrazol-3-yl)-1,2-dihydropyridin-2-one] here?
A: 2.67 h

Q: And the half-life at 20 µM [2]?
A: 1.13 h

Q: And the C0 ([3]; IV 1 mg/kg)?
A: 94 ng/mL

Q: And the AUC ([3]; IV 1 mg/kg, read-out: IV AUC)?
A: 180 ng·h/mL

Q: What about the Cmax [3, 5] of the same compound?
A: 5.8 ng/mL

Q: And the AUC [3, 6]?
A: 73 ng·h/mL

Q: With `CC(C)(C)C(=O)n1nc(-c2cccn(CCC(=O)O)c2=O)cc1NCc1ccc(Cl)s1` [Compound 1, 3-[3-(5-{[(5-chlorothiophen-2-yl)methyl]amino}-1-(2,2-dimethylpropanoyl)-1H-pyrazol-3-yl)-2-oxo-1,2-dihydropyridin-1-yl]propanoic acid] as the compound, how does the half-life at 20 µM [1] read?
A: ≥ 3 h

Q: What about the half-life at 20 µM [2] of the same compound?
A: 1.13 to 1.83 h

Q: And the C0 ([4]; IV single dose 1 mg/kg)?
A: 6800 ng/mL

Q: What about the AUC [4, 7] of the same compound?
A: 8200 ng·h/mL

Q: And the Cmax ([4]; PO single dose 5 mg/kg)?
A: 3600 ng/mL

Q: What about the AUC [4, 8] of the same compound?
A: 31000 ng·h/mL

Q: What about the C0 ([3]; IV 1 mg/kg) of the same compound?
A: 6500 ng/mL

Q: What about the AUC ([3]; IV 1 mg/kg, read-out: IV AUC) of the same compound?
A: 3000 ng·h/mL

Q: And the Cmax [3, 9]?
A: 240 ng/mL

Q: What about the AUC [3, 10] of the same compound?
A: 2200 ng·h/mL

Q: For `O=C(O)CCn1cccc(-c2cc(NCc3ccc(Cl)s3)[nH]n2)c1=O` [Compound 2, 3-[3-(5-{[(5-chlorothiophen-2-yl)methyl]amino}-1H-pyrazol-3-yl)-2-oxo-1,2-dihydropyridin-1-yl]propanoic acid], which half-life at 20 µM [1] is on record?
A: ≥ 5 h

Q: What about the half-life at 20 µM [2] of the same compound?
A: ≥ 5 h

Q: And the C0 ([4]; IV single dose 1 mg/kg)?
A: 6300 ng/mL

Q: And the AUC [4, 7]?
A: 850 ng·h/mL

Q: And the Cmax ([4]; PO single dose 5 mg/kg)?
A: 700 ng/mL

Q: And the AUC [4, 8]?
A: 1300 ng·h/mL

Q: What about the C0 ([3]; IV 1 mg/kg) of the same compound?
A: 5600 ng/mL

Q: What about the AUC ([3]; IV 1 mg/kg, read-out: IV AUC) of the same compound?
A: 760 ng·h/mL

Q: What about the Cmax [3, 5] of the same compound?
A: 150 ng/mL

Q: And the AUC [3, 6]?
A: 140 ng·h/mL

Q: With `O=C(O)CCn1cccc(-c2cc(NCc3ccc(Cl)s3)n(C(=O)c3ccoc3)n2)c1=O` [Compound 12, 3-[3-(5-{[(5-chlorothiophen-2-yl)methyl]amino}-1-(furan-3-carbonyl)-1H-pyrazol-3-yl)-2-oxo-1,2-dihydropyridin-1-yl]propanoic acid] as the compound, how does the half-life at 20 µM [1] read?
A: 3.67 h

Q: What about the half-life at 20 µM [2] of the same compound?
A: 3 h

Q: What about the C0 ([4]; IV single dose 1 mg/kg) of the same compound?
A: 4200 ng/mL

Q: And the AUC [4, 7]?
A: 1000 ng·h/mL

Q: And the C0 ([3]; IV 1 mg/kg)?
A: 4600 ng/mL

Q: What about the AUC ([3]; IV 1 mg/kg, read-out: IV AUC) of the same compound?
A: 930 ng·h/mL

Q: And the Cmax [3, 9]?
A: 19 ng/mL

Q: What about the AUC [3, 10] of the same compound?
A: 28 ng·h/mL

Q: With `O=C(O)Cn1cccc(-c2cc(NCc3ccc(Cl)s3)[nH]n2)c1=O` [Compound 3, 2-[3-(5-{[(5-chlorothiophen-2-yl)methyl]amino}-1H-pyrazol-3-yl)-2-oxo-1,2-dihydropyridin-1-yl]acetic acid] as the compound, how does the half-life at 20 µM [1] read?
A: ≥ 5 h

Q: And the half-life at 20 µM [2]?
A: ≥ 5 h

Q: What about the C0 ([4]; IV single dose 1 mg/kg) of the same compound?
A: 7200 ng/mL

Q: What about the AUC [4, 7] of the same compound?
A: 2200 ng·h/mL

Q: Which half-life at 20 µM [1] does the source give for `CCC(C)(C)C(=O)n1nc(-c2cccn(CCC(=O)O)c2=O)cc1NCc1ccc(Cl)s1` [Compound 11, 3-[3-(5-{[(5-chlorothiophen-2-yl)methyl]amino}-1-(2,2-dimethylbutanoyl)-1H-pyrazol-3-yl)-2-oxo-1,2-dihydropyridin-1-yl]propanoic acid] here?
A: ≥ 5 h

Q: What about the half-life at 20 µM [2] of the same compound?
A: ≥ 5 h

Q: And the C0 ([4]; IV single dose 1 mg/kg)?
A: 7400 ng/mL

Q: And the AUC [4, 7]?
A: 3900 ng·h/mL

Q: What about the C0 ([3]; IV 1 mg/kg) of the same compound?
A: 6100 ng/mL

Q: What about the AUC ([3]; IV 1 mg/kg, read-out: IV AUC) of the same compound?
A: 3200 ng·h/mL

Q: What about the Cmax [3, 5] of the same compound?
A: 1200 ng/mL

Q: And the AUC [3, 6]?
A: 2100 ng·h/mL

Q: For `CC(C)(C)C(=O)n1nc(-c2cccn(CCC(N)=O)c2=O)cc1NCc1ccc(Cl)s1` [Compound 8, 3-[3-(5-{[(5-chlorothiophen-2-yl)methyl]amino}-1-(2,2-dimethylpropanoyl)-1H-pyrazol-3-yl)-2-oxo-1,2-dihydropyridin-1-yl]propanamide], which half-life at 20 µM [1] is on record?
A: 2.67 h

Q: What about the half-life at 20 µM [2] of the same compound?
A: 1.13 h

Q: What about the C0 ([4]; IV single dose 1 mg/kg) of the same compound?
A: 1700 ng/mL

Q: What about the AUC [4, 7] of the same compound?
A: 530 ng·h/mL

Q: What about the Cmax [3, 5] of the same compound?
A: 230 ng/mL

Q: What about the AUC [3, 6] of the same compound?
A: 120 ng·h/mL

Q: For `CC(C)(C)C(=O)n1nc(-c2cccn(CC(=O)O)c2=O)cc1NCc1ccc(Cl)s1` [Compound 4, 2-[3-(5-{[(5-chlorothiophen-2-yl)methyl]amino}-1-(2,2-dimethylpropanoyl)-1H-pyrazol-3-yl)-2-oxo-1,2-dihydropyridin-1-yl]acetic acid], which half-life at 20 µM [1] is on record?
A: ≥ 5 h

Q: And the half-life at 20 µM [2]?
A: 3 h

Q: What about the C0 ([4]; IV single dose 1 mg/kg) of the same compound?
A: 9500 ng/mL

Q: And the AUC [4, 7]?
A: 6200 ng·h/mL

Q: And the Cmax ([4]; PO single dose 5 mg/kg)?
A: 1500 ng/mL

Q: And the AUC [4, 8]?
A: 15000 ng·h/mL

Q: And the C0 ([3]; IV 1 mg/kg)?
A: 12000 ng/mL

Q: What about the AUC ([3]; IV 1 mg/kg, read-out: IV AUC) of the same compound?
A: 2300 ng·h/mL

Q: What about the Cmax [3, 9] of the same compound?
A: 260 ng/mL

Q: And the AUC [3, 10]?
A: 2300 ng·h/mL
